Measured values as given in patent US8952192B2, “Phosphorylated and branched dihydroxy-pentane-dione (DPD) analogs as quorum sensing inhibitors in bacteria” (University of Maryland, College Park, priority 2011, dated 2015).
Entries after “also recorded” stand apart in the source; their conditions may differ.

Columns and labels:
[1] = system: lsr expression in E. coli (lsr-lacZ reporter strains); assay: QS response (lsr expression): AI-2 dependent β-galactosidase production, Miller assay; assay type: cell-based, Escherichia coli; details: for inhibition of AI-2-mediated lsr expression (β-galactosidase), in words: 20 μM AI-2 (DPD) + 20 μM analog; for IC50: concentration reducing lsr expression (β-galactosidase production) to 50% in the presence of 20 μM exogenously added synthetic DPD, read-out: IC50 of analog (nM) to inhibit QS in E. coli
Description: (§1) The panel of C1-alkyl analogs was screened to identify QS modulators in the enteric bacteria E. coli and S. typhimurium. Transcription of the QS associated lsr operon, by using lsr-lacZ reporter strains (Table 2) which produce β-galactosidase in response to added AI-2 was monitored. In order to first establish if the analogs were agonists or antagonists in the QS circuit, the analogs were incubated with E. coli LW7 pLW11 and S. typhimurium MET715 (FIG. 19a-b) both of which are luxS^−. None of the analogs, except ethyl-DPD behaved as agonists for lsr expression. Previous studies investigating AI-2 antagonism in P. aeruginosa or in S. typhimurium were carried out using chemically synthesized AI-2 added to luxS^− cells. […] The same trends were obtained by adding a 1:1 ratio of enzymatically synthesized AI-2 and DPD analogs to the luxS^− strains E. coli LW7 pLW11 and S. typhimurium MET715 (FIG. 11a-b). None of the tested DPD analogs were bacteriocidal or bacteriostatic as the OD600 values of E. coli ZK126 pLW11 and S. typhimurium MET708 in the presence and absence of the analogs were similar (FIG. 10). Though the QS circuitry of the enteric organisms, E. coli and S. typhimurium are homologous they respond differently to the DPD analogs. The E. coli QS circuitry is susceptible to being silenced by a variety of DPD analogs of different shapes and sizes whereas in S. typhimurium, only a handful of DPD analogs could antagonize the action of AI-2. […] Isobutyl-DPD emerged as an effective and non-species-specific quencher; causing significant lsr expression knockdowns in both E. coli and S. typhimurium.
(§2) The QS response indicated by lsr gene expression was analyzed in pure culture studies by culturing E. coli LW7 pLW11, E. coli ZK126 pLW11 and S. typhimurium MET708, S. typhimurium MET715 overnight in LB medium supplemented with appropriate antibiotics as stated previously. These cells were then diluted into fresh LB medium (with antibiotics) and grown to an OD600 of 0.8-1.0 at 30° C., 250 rpm. Cells were then collected by centrifugation at 10,000×g for 10 minutes, and resuspended in 10 mM phosphate buffer. AI-2 (20 μM) and the respective analog (20 μM) were added to the E. coli or S. typhimurium suspension for 2 hours at 37° C. AI-2 dependent β-galactosidase production was quantified by the Miller assay.
(§3) The QS response indicated by lsr gene expression was analyzed in pure culture studies by culturing E. coli LW7 pLW11 and S. typhimurium MET715 overnight at 30° C. in LB medium supplemented with appropriate antibiotics as stated previously. These cells were then diluted into fresh LB medium (with antibiotics) and grown to an OD600 of 0.4-0.8 at 37° C., 250 rpm. Cells were then collected by centrifugation at 10,000×g for 10 min and resuspended in 10 mM phosphate buffer. AI-2 (20 μM) and the respective analog (20 μM) were added to the E. coli or S. typhimurium suspension for 2 h at 37° C. AI-2 dependent β-galactosidase production was quantified by the Miller assay.
(§4) The QS response indicated by lsr gene expression was analyzed in pure culture studies by culturing E. coli LW7 pLW11, E. coli ZK126 pLW11 and S. typhimurium MET708, S. typhimurium MET715 overnight in LB medium individually supplemented with appropriate antibiotics, as specified above. These cells were diluted into fresh LB medium (with antibiotics) and grown to an OD600 of 0.8-1.0 at 30° C., 250 rpm. Cells were collected by centrifugation at 10,000×g for 10 minutes, and resuspended in 10 mM phosphate buffer. AI-2 (20 μM) and the respective analog (20 μM) were added to the E. coli or S. typhimurium suspension for 2 hours at 37° C. AI-2 dependent β-galactosidase production was quantified by the Miller assay.

V. harveyi BB170 = assay: QS response (bioluminescence), trispecies synthetic ecosystem; assay type: cell-based; details: LM media
Description: The effect of isobutyl-DPD or isopropyl-DPD on QS associated bioluminescence production by V. harveyi was recorded by measuring the light production from reporter strain, V. harveyi BB170. The analogs were added at concentrations of (20 μM or 40 μM) to V. harveyi BB170 which was assayed as previously described.
(§5) The S. typhimurium MET708, V. harveyi BB170 and E. coli W3110 pCT6 were each cultured separately overnight in LM medium supplemented with the appropriate antibiotic. V. harveyi BB170, S. typhimurium MET708 and E. coli MDAI-2 were diluted (1:4:8), respectively, into a single 1 ml volume of fresh LM medium without antibiotics. The co-culture was supplemented with either 20 μM or 40 μM analog initially and again after 3 and 5 hours of growth. The V. harveyi luminescence response was measured after 2.5 hours. The S. typhimurium lacZ (β-galactosidase) activity was measured after 4 hours. The E. coli response was determined after 8 hours, by fixing the cells with 1:1 cold 4% paraformaldehyde and using flow cytometric analysis. Samples were analyzed by flow cytometery (FACS Canto II, BD 394 Biosciences), with 20,000 gated events analyzed per sample.

S. typhimurium MET708 = assay: Trispecies synthetic ecosystem (S. typhimurium, V. harveyi, E. coli): β-galactosidase activity; assay type: cell-based; details: trispecies co-culture, lacZ activity after 4 hours
From the text: (§6) To investigate the effect of the DPD analogs in a mixed bacterial environment, a synthetic ecosystem composed of three different bacterial populations was assembled. Specifically, S. typhimurium MET708, V. harveyi BB170 and E. coli W3110 (pCT6), each luxS^+ (Table 2), and each producing their native AI-2 were co-cultured in the same tubes. By design, each species was selected so that a different reporter probe would indicate the specific bacterium's QS response: S. typhimurium (MET708) expresses β-galactosidase; V. harveyi (BB170) elicits bioluminescience; and E. coli (W331) are engineered to synthesize GFP. In this way, their responses can be differentiated and quantified in response to AI-2.
as §5, with “V. harveyi BB170, S. typhimurium MET708 and E. coli MDAI-2 were diluted (1:4:8), respectively, into a single 1 ml volume of fresh LM medium without antibiotics. The co-culture was supplemented with either 20 μM or 40 μM analog initially and again after 3 and 5 hours of growth.” left out

E. coli = assay: DPD analogs and representative bacterial species affected (Table 1); assay type: cell-based; set-up: key: x: DPD Analogs and representative bacterial species affected
LsrK = molecular target: T1, LsrK (Escherichia coli, UniProt P77432); assay: In vitro phosphorylation of analogs by LsrK (TLC, autoradiography); assay type: biochemical, E. coli; details: for phosphorylation by E. coli LsrK: incubation with LsrK in vitro for one hour (Example 6)
T1 construct: made in house; host or cells: E. coli BL21
Description: LsrK was purified and from E. coli BL21 pET200-LsrK as described before. Phosphorylated analogs were synthesized by incubating 1 μM) LsrK with 40 μM ATP (Roche), […] of [γ-^32P] […] A 5 μL aliquot was then spotted onto a cellulose TLC plate (Selecto Scientific). The plate was developed using 0.8 M LiCl as the solvent, air dried and developed via autoradiography.
LsrK was purified from E. coli BL21 pET200-LsrK as described before. Phosphorylated analogs were synthesized by incubating (1 μM) LsrK with (40 μM) ATP (Roche), ([…]) of [P^32] […] An aliquot (2.5 μL) was then spotted onto a cellulose TLC plate (Selecto Scientific). The plate was developed using 0.8 M LiCl as the solvent, air dried and developed via autoradiography.

E. coli W3110 pCT6 = assay: Trispecies synthetic ecosystem: AI-2 stimulated GFP expression, flow cytometry; assay type: cell-based; details: trispecies co-culture, flow cytometry after 8 hours; 60.7% without analog
From the text: as §6
as §5, with “V. harveyi BB170, S. typhimurium MET708 and E. coli MDAI-2 were diluted (1:4:8), respectively, into a single 1 ml volume of fresh LM medium without antibiotics. The co-culture was supplemented with either 20 μM or 40 μM analog initially and again after 3 and 5 hours of growth.” left out

S. mutans = assay: DPD analogs and representative bacterial species affected (Table 1); assay type: cell-based; set-up: key: x: DPD Analogs and representative bacterial species affected
[2] = system: pyocyanin production in P. aeruginosa PAO1; assay: QS response (pyocyanin production); assay type: cell-based; details: pure culture P. aeruginosa PAO1, DPD analogs (100 μM)
Description: Identifying Modulators of P. aeruginosa QS. DPD analogs (100 μM) were screened for activity in P. aeruginosa PAO1 by monitoring pyocyanin production (FIG. 34b and FIG. 38).
The cells were grown with the analog at 3 mL total volume in 50 mL flasks in LB medium, with continuous shaking. Between 22-24 h, when the cells turned green after pyocyanin secretion, the pigment was extracted. The pyocyanin quantification assay was conducted as described. 2 mL chloroform was added to the 3 mL culture and pipetted up and down. 1 mL of the chloroform was transferred to a separate tube and the pyocyanin was re-extracted into 200 μL of 0.2 M HCl. The absorbance of the solution was measured at OD 520 nm. To calculate the concentration of pyocyanin extracted as μg/mL, the OD at 520 nm was multiplied by 17.07.

[3] = molecular target: lsr expression in S. typhimurium (lsr-lacZ reporter strains); assay: QS response (lsr expression): AI-2 dependent β-galactosidase production, Miller assay; assay type: cell-based, Salmonella typhimurium; details: for IC50: concentration reducing lsr expression (β-galactosidase production) to 50% in the presence of 20 μM exogenously added synthetic DPD, read-out: IC50 of analog (nM) to inhibit QS in S. typhimurium
Description: as §1, §2, §3, §4

V. harveyi = assay: DPD analogs and representative bacterial species affected (Table 1); assay type: cell-based; set-up: key: x: DPD Analogs and representative bacterial species affected
[4] = system: lsr expression in E. coli (lsr-lacZ reporter strains); assay: QS response (lsr expression): AI-2 dependent β-galactosidase production, Miller assay; assay type: cell-based, Escherichia coli; details: E. coli SH3 (lsrK−, luxS−), 20 μM ethyl-DPD

T1 sequence (P77432 whole entry): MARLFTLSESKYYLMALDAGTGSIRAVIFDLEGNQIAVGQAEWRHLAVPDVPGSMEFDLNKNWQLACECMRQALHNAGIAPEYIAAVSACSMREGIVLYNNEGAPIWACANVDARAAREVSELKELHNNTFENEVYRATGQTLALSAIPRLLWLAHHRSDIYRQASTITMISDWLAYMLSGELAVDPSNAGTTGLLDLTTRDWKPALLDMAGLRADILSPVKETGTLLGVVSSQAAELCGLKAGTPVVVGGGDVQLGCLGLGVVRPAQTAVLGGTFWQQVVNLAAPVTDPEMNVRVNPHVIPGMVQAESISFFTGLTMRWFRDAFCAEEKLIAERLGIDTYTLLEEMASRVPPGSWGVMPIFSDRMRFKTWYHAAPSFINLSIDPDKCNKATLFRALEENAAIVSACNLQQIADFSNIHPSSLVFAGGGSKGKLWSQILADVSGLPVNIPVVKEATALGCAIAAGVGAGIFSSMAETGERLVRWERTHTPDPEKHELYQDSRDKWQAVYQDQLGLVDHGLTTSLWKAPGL

Structure (SMILES): CC(C)C(=O)C(=O)C(O)CO (centres unmarked) [isopropyl-DPD]
- effect on native lsr expression (QS response) ([1]; E. coli ZK126 pLW11 (luxS+), cells produce their own AI-2): substantial reduction; also recorded: partial antagonist
- decrease of bioluminescence in V. harveyi (V. harveyi BB170; 20 μM): 50%
- decrease of bioluminescence in V. harveyi (V. harveyi BB170; 40 μM): 50%
- reduction of the S. typhimurium response, in words (S. typhimurium MET708): unable to cause any reduction
- bacterial species affected: E. coli (E. coli): x
- phosphorylation by LsrK (LsrK; incubation with LsrK and excess ATP for 2 hours (Example 1)): phosphorylated
- QS positive (green, GFP) cells of the E. coli population after analog addition (E. coli W3110 pCT6): 21.4%

Structure (SMILES): O=C(C(=O)C1CCC1)C(O)CO (centres unmarked) [Cyclobutyl-DPD, Cyclobutyl DPD]
- bacterial species affected: S. mutans (S. mutans): x
- inhibition of AI-2-mediated lsr expression (β-galactosidase), in words ([1]; E. coli LW7 pLW11 (luxS−)): inhibit lsr expression
- phosphorylation by E. coli LsrK (LsrK): significantly phosphorylated

Structure (SMILES): CCCCCCCC(=O)C(=O)[C@@H](O)CO [Heptyl-DPD, heptyl-DPD]
- inhibition of pyocyanin production [2]: some inhibition
- IC50 [1]: 15900 nM
- IC50 [3]: > 40000 nM
- bacterial species affected: E. coli (E. coli): x

Structure (SMILES): CCCCC(=O)C(=O)[C@@H](O)CO [Butyl-DPD, butyl-DPD]
- bacterial species affected: V. harveyi (V. harveyi): x
- IC50 [1]: 2970 nM
- effect on native lsr expression (QS response) ([3]; S. typhimurium MET708 (luxS+), cells produce their own AI-2): considerable QS response reduction; also recorded: significantly inhibited signaling
- IC50 [3]: > 40000 nM
- bacterial species affected: E. coli (E. coli): x

Structure (SMILES): O=C(C(=O)C1CCCCC1)C(O)CO (centres unmarked) [Cyclohexyl-DPD, cyclohexyl-DPD]
- bacterial species affected: V. harveyi (V. harveyi): x
- inhibition of AI-2-mediated lsr expression (β-galactosidase), in words ([1]; E. coli LW7 pLW11 (luxS−)): attenuated lsr expression in E. coli to a lesser extent
- effect on AI-2-mediated lsr expression (β-galactosidase), in words ([3]; S. typhimurium MET715 (luxS−), 20 μM AI-2 (DPD) + 20 μM analog): increased expression
- bacterial species affected: E. coli (E. coli): x
- phosphorylation by E. coli LsrK (LsrK): weakly phosphorylated
- phosphorylation by E. coli LsrK (LsrK; listed as cyclohexyl): not phosphorylated

Structure (SMILES): CCC(=O)C(=O)[C@@H](O)CO [ethyl-DPD]
- bacterial species affected: V. harveyi (V. harveyi): x
- lsr transcription in LsrK knockout strain [4]: did not initiate lsr transcription
- agonist activity for lsr expression ([1]; E. coli LW7 pLW11 (luxS−), analog only, no AI-2 added): agonist
- agonist activity for lsr expression ([3]; S. typhimurium MET715 (luxS−), analog only, no AI-2 added): agonist
- bacterial species affected: E. coli (E. coli): x

Structure (SMILES): O=C(C(=O)C(O)CO)c1ccco1 (centres unmarked) [furanosyl-DPD, Furanyl DPD]
- bacterial species affected: S. mutans (S. mutans): x
- inhibition of AI-2-mediated lsr expression (β-galactosidase), in words ([1]; E. coli LW7 pLW11 (luxS−)): minimal
